Assays:
[1] = tested on: freshwater diatom Encyonema minutum var. pseudogracialis (Em); test: Lethality experiments on diatom Em in 96-well plates, live/dead count by Neutral Red vital staining; format: cell-based; conditions: 10 μM TDD alone; ~24 hours, 20° C.; n=3
Protocol: Em was maintained and tested at BMI in a modified filter-sterilized CR1-S algal medium with no soil particles so as to improve visualization and counting speed and accuracy.
All experiments were conducted in untreated polystyrene 96-well plates. Total liquid volume added to each well was 200 μL for all assays. At the start of each experiment, a conical tube of diatom Em was split into two and given fresh media (1:1 algae:media), then examined under a microscope to confirm vitality.
Lethality experiments were conducted with 6 different commercial algicides (AlgaeFix™, DINO X, Aquathol® K, Cutrine® Plus, GreenClean® PRO, and Hydrothol® 191 Granular) and two infochemicals (trans,trans-2,4-decadienal [TDD] and cholesterol-3-sulfate [C3S]). Fresh 50 mM or 25 mM stock solutions of each infochemical were prepared in DMSO immediately prior to each experiment. […]
Following incubation, 1.5 μL of filtered Neutral Red (0.8 g in 25 mL DI) for every 100 μL of solution (3 μL for 200 μL) was added to each well. […] A different staff member counted cells in 5 μL from each well using a hemocytometer under a microscope; this second staff member was not told which treatments were in which wells, so as to maintain single-blind data collection. Total cells were counted, along with live/dead characterization via Neutral Red vital cell staining, and time of well count completion.

model diatoms = conditions: cited from earlier work

Row | SMILES | Single treatment: lethality above negative control [1] | Level leading to programmed-cell-death / cell death (model diatoms)
1 | CCCCC/C=C/C=C/C=O [TDD, trans,trans-2,4-decadienal] | 6.7% | micromolar levels
2 | CC(C)CCC[C@@H](C)[C@H]1CC[C@H]2[C@@H]3CC=C4C[C@@H](OS(=O)(=O)O)CC[C@]4(C)[C@H]3CC[C@]12C [C3S, cholesterol-3-sulfate, reference compound] |  | micromolar levels
